From publication PMC6151511, “Rational Design of Nucleoside–Bile Acid Conjugates Incorporating a Triazole Moiety for Anticancer Evaluation and SAR Exploration” (Molecules : A Journal of Synthetic Chemistry and Natural …, 2017)
“And” between values parts separate entries of the source, which are not always exact repeats. Equal entries are not always repeated. Where two headings read alike, the source gives them in different places.

How the values were obtained:
Type in all cases: cell-based
K562 leukemia cells = test: MTT assay, cell growth inhibition of K562 leukemia cells; conditions: for cytotoxicity against K562 (in words): 10, 25 and 50 μM
Experimental: (§1) All conjugated compounds prepared via click chemistry and listed in Table 1 were evaluated in vitro for their cytotoxic activity against K562 leukemia cells and the colon cancer cell line HCT116. Normal human skin fibroblast cells were chosen as a control and cisplatin served as a reference compound. The cytotoxicity was evaluated using the MTT assay (details are reported in the Materials and Methods section). In all experiments the cell growth inhibition of K562 and HCT116 was determined for each compound at concentrations of 10, 25 and 50 μM after 72 h of treatment and up to 100 μM in the case of fibroblasts.
(§2) Cell growth inhibition assays were carried out using the leukemia cell line K562 and colon carcinoma HCT116. Cell lines were obtained from ATCC (Manassas, VA, USA) and maintained in RPMI 1640, supplemented with 10% fetal bovine serum (FBS), penicillin (100 Units mL^−1), streptomycin (100 μg mL^−1) and glutamine (2 mM) (complete medium); the pH of the medium was 7.2 and the incubation was performed at 37 °C in a 5% CO2 atmosphere. Adherent cells were routinely used at 70% of confluence and passaged every 3 days by treatment with 0.05% Trypsin-EDTA (Lonza, Walkersville, MD, USA). K562 cells were routinely fed every 3 days.
(§3) The antiproliferative activity of the compounds was tested using the 3-(4,5-dimethylthiozol-2-yl)2,5-diphenyltetrazolium bromide solution (MTT) assay. K562 and HCT116 were seeded in triplicate in 96-well trays respectively at the density of 5 × 10^3 and 10^4 in 50 μL of complete medium. Stock solutions (50 mM) of each compound were made in DMSO and diluted in complete medium to give final concentrations of 50, 25 and 10 μM. Untreated cells were placed in every plate as a negative control. The cells were exposed to the compounds, in 100 μL total volume, for 72 h.

[1] = tested on: Normal human skin fibroblast cells; test: MTT assay, cytotoxicity on normal fibroblasts (control); conditions: up to 100 μM; for IC50: MTT, 72 h incubation, mean of three independent experiments ± SD, IC50 > 100 means inhibition <10% at 100 μM, read-out: IC50 FIBRO
Experimental: as §1, §3

HCT116 colon carcinoma = test: MTT assay, cell growth inhibition of HCT116 colon carcinoma; conditions: for IC50: MTT, 72 h incubation, mean of three independent experiments ± SD, IC50 > 50 means inhibition <20% at 50 μM; for cytotoxicity against HCT116 (in words): 10, 25 and 50 μM, 72 h
Experimental: as §1, §2, §3

[2] = Homo sapiens, K562, 72 h, MTT, 72 h incubation, mean of three independent experiments ± SD, IC50 > 50 means inhibition <20% at 50 μM, read-out: IC50 K562
[3] = Homo sapiens, Skin fibroblast, 72 h
[4] = MTT, 72 h incubation, mean of three independent experiments ± SD, IC50 > 50 means inhibition <20% at 50 μM, read-out: IC50 K562

Row | SMILES | IC50 (K562 leukemia cells; [2]) [µM] | IC50 [1, 3] [µM] | IC50 (HCT116 colon carcinoma; Homo sapiens, HCT-116, 72 h) [µM] | IC50 (HCT116 colon carcinoma) | IC50 (K562 leukemia cells; Homo sapiens, K562, 72 h, extrapolated beyond the highest tested concentration of 50 μM, 72 h, read-out: IC50 K562, extrapolated value) [µM] | IC50 (K562 leukemia cells; [4]) [µM] | IC50 [1] [µM] | cytotoxicity against K562 (in words) (K562 leukemia cells; 72 h) | cytotoxicity towards fibroblast cells (in words) ([1]; 72 h) | cytotoxicity against HCT116 (in words) (HCT116 colon carcinoma)
1 | CC(CCN=[N+]=[N-])[C@H]1CCC2C3C(CC[C@@]21C)[C@@]1(C)CC[C@@H](O)CC1C[C@@H]3O (stereo partly drawn) [23-N3-nor-UDC, 3α,7β-Dihydroxy-5β-23-azido-24-norcholane] | 15 ± 1 | 81 ± 2 | 22 ± 1.4 |  |  |  |  |  |  | 
2 | COC(=O)CCC(C)C1CCC2C3C(O)CC4CC(n5cc(CCCCC#Cc6nc7c(N)ncnc7n6C6OC(CO)C(O)C6O)nn5)CCC4(C)C3CCC12C (centres unmarked) [A-CDC] | 43.5 ± 1.3 | > 100 |  | ≤ 25 µM and 23.1 µM |  |  |  |  |  | 
3 | C#CCCCCC#Cc1nc2c(N)ncnc2n1[C@@H]1O[C@H](CO)[C@@H](O)[C@H]1O [ALK-A, 8-(1,7-Octadynyl)-adenosine] | > 50 | > 100 | > 50 |  |  |  |  |  |  | 
4 | C#CCCCCC#Cc1nc2c(=O)[nH]c(N)nc2n1[C@@H]1O[C@H](CO)[C@@H](O)[C@H]1O [ALK-G, 8-(1,7-Octadynyl)-guanosine] | > 50 | > 100 | > 50 |  |  |  |  |  |  | 
5 | COC(=O)CCC(C)[C@H]1CCC2C3C(CC[C@@]21C)[C@@]1(C)CC[C@@H](n2cc(CCCCC#Cc4nc5c(=O)[nH]c(N)nc5n4[C@@H]4O[C@H](CO)[C@@H](O)[C@H]4O)nn2)CC1C[C@H]3O (some centres unmarked) [G-CDC] | > 50 | > 100 | ≤ 25 | 25.3 ± 3.8 µM |  |  |  |  |  | 
6 | CC(CCn1cc(CCCCC#Cc2nc3c(N)ncnc3n2[C@H]2C[C@H](O)[C@@H](CO)O2)nn1)[C@H]1CCC2C3C(CC[C@@]21C)[C@@]1(C)CC[C@@H](O)CC1C[C@@H]3O (some centres unmarked) [dA-nor-UDC] | > 50 | > 100 | 44.8 ± 3.5 |  | 87.1 |  |  |  |  | 
7 | CC(CCn1cc(CCCCC#Cc2nc3c(=O)[nH]c(N)nc3n2[C@H]2C[C@H](O)[C@@H](CO)O2)nn1)[C@H]1CCC2C3C(CC[C@@]21C)[C@@]1(C)CC[C@@H](O)CC1C[C@H]3O (some centres unmarked) [dG-nor-CDC] | > 50 | > 100 | > 50 |  |  |  |  |  |  | 
8 | COC(=O)CCC(C)[C@H]1CCC2C3C(CC[C@@]21C)[C@@]1(C)CC[C@@H](n2cc(CCCCC#Cc4cn([C@H]5C[C@H](O)[C@@H](CO)O5)c(=O)[nH]c4=O)nn2)CC1C[C@H]3O (some centres unmarked) [dU-CDC] | > 50 | > 100 | > 50 |  |  |  |  |  |  | 
9 | CC(CCC(=O)NCCS(=O)(=O)O)[C@H]1CCC2C3C(CC[C@@]21C)[C@@]1(C)CC[C@@H](n2cc(CCCCC#Cc4nc5c(=O)[nH]c(N)nc5n4[C@H]4C[C@H](O)[C@@H](CO)O4)nn2)CC1C[C@@H]3O (some centres unmarked) [dG-TUDCA] | > 50 | > 100 | > 50 |  |  |  |  |  |  | 
10 | COC(=O)CCC(C)[C@H]1CCC2C3C(CC[C@@]21C)[C@@]1(C)CC[C@@H](n2cc(CCCCC#Cc4nc5c(=O)[nH]c(N)nc5n4[C@@H]4O[C@H](CO)[C@@H](O)[C@H]4O)nn2)CC1C[C@@H]3O (some centres unmarked) [G-UDC] | > 50 | > 100 | > 50 |  |  |  |  |  |  | 
11 | COC(=O)CCC(C)C1CCC2C3C(O)CC4CC(n5cc(CCCCC#Cc6nc7c(N)ncnc7n6C6OC(CO)C(O)C6O)nn5)CCC4(C)C3CCC12C (centres unmarked) [A-UDC] |  |  |  | > 50 µM |  | > 50 | > 100 |  |  | 
12 | CC(CCC(=O)NCCS(=O)(=O)O)[C@H]1CCC2C3C(CC[C@@]21C)[C@@]1(C)CC[C@@H](n2cc(CCCCC#Cc4cn([C@H]5C[C@H](O)[C@@H](CO)O5)c(=O)[nH]c4=O)nn2)CC1C[C@@H]3O (some centres unmarked) [dU-TUDCA] |  | > 100 | > 50 |  |  |  |  |  |  | 
13 | C#CCCCCC#Cc1nc2c(=O)[nH]c(N)nc2n1[C@H]1C[C@H](O)[C@@H](CO)O1 [ALK-dG, 8-(1,7-Octadynyl)-2′-deoxyguanosine] | > 50 | > 100 | > 50 |  |  |  |  |  |  | 
14 | CC(CCC(=O)NCCS(=O)(=O)O)[C@H]1CCC2C3C(CC[C@@]21C)[C@@]1(C)CC[C@@H](n2cc(CCCCC#Cc4nc5c(=O)[nH]c(N)nc5n4[C@@H]4O[C@H](CO)[C@@H](O)[C@H]4O)nn2)CC1C[C@@H]3O (some centres unmarked) [G-TUDCA] | > 50 | > 100 | > 50 |  |  |  |  |  |  | 
15 | COC(=O)CC[C@@H](C)[C@H]1CC[C@H]2[C@@H]3[C@H](O)C[C@@H]4C[C@H](N=[N+]=[N-])CC[C@]4(C)[C@H]3CC[C@]12C [3α-N3-CDC, methyl 3α-azido-7α-hydroxy-5β-cholan-24-oate] | 23 ± 2 | > 100 | 31 ± 2.3 |  |  |  |  | active | not active | active
16 | CC(CCC(=O)NCCS(=O)(=O)O)[C@H]1CCC2C3C(CC[C@@]21C)[C@@]1(C)CC[C@@H](N=[N+]=[N-])CC1C[C@@H]3O (stereo partly drawn) [3α-N3-TUDCA, (3α-Azido-7β-hydroxy-5β-cholan-24-oyl)-2-aminoethanesulfonic Acid] | > 50 | > 100 | > 50 |  |  |  |  | not be cytotoxic | not be cytotoxic | not be cytotoxic
17 | N.N.[Cl][Pt][Cl] [CISPLATIN, cisplatin, reference compound] |  |  |  | 8.5 ± 1.2 µM |  | 5.4 ± 1 | 23.6 ± 3.5 |  |  | 
18 | CC(CCn1cc(CCCCC#Cc2nc3c(=O)[nH]c(N)nc3n2[C@@H]2O[C@H](CO)[C@@H](O)[C@H]2O)nn1)[C@H]1CCC2C3C(CC[C@@]21C)[C@@]1(C)CC[C@@H](O)CC1C[C@@H]3O (some centres unmarked) [G-nor-UDC] | > 50 | > 100 | > 50 |  |  |  |  |  |  | 
19 | CC(CCn1cc(CCCCC#Cc2cn([C@H]3C[C@H](O)[C@@H](CO)O3)c(=O)[nH]c2=O)nn1)[C@H]1CCC2C3C(CC[C@@]21C)[C@@]1(C)CC[C@@H](O)CC1C[C@@H]3O (some centres unmarked) [dU-nor-UDC] | ≤ 25 | > 100 | 43 ± 3.5 |  |  | 24.8 ± 1.5 |  |  |  | 
20 | CC(CCn1cc(CCCCC#Cc2cn([C@H]3C[C@H](O)[C@@H](CO)O3)c(=O)[nH]c2=O)nn1)[C@H]1CCC2C3C(CC[C@@]21C)[C@@]1(C)CC[C@@H](O)CC1C[C@H]3O (some centres unmarked) [dU-nor-CDC] | 42.9 ± 1.9 | > 100 | > 50 |  |  |  |  |  |  | 
21 | CC(CCC(=O)NCCS(=O)(=O)O)C1CCC2C3C(O)CC4CC(n5cc(CCCCC#Cc6nc7c(N)ncnc7n6C6OC(CO)C(O)C6O)nn5)CCC4(C)C3CCC12C (centres unmarked) [A-TUDCA] | > 50 | > 100 | > 50 |  |  |  |  |  |  | 
22 | CC(CCn1cc(CCCCC#Cc2nc3c(N)ncnc3n2C2OC(CO)C(O)C2O)nn1)C1CCC2C3C(O)CC4CC(O)CCC4(C)C3CCC12C (centres unmarked) [A-nor-UDC] |  |  |  | > 50 µM |  | > 50 | > 100 |  |  | 
23 | COC(=O)CCC(C)[C@H]1CCC2C3C(CC[C@@]21C)[C@@]1(C)CC[C@@H](n2cc(CCCCC#Cc4cn([C@H]5C[C@H](O)[C@@H](CO)O5)c(=O)[nH]c4=O)nn2)CC1C[C@@H]3O (some centres unmarked) [dU-UDC] | ≤ 25 | ~100 | ≤ 25 | 23.5 ± 1.6 µM |  | 21.5 ± 2 | 91.5 ± 4.5 |  |  | 
24 | COC(=O)CC[C@@H](C)[C@H]1CC[C@H]2[C@@H]3[C@@H](O)C[C@@H]4C[C@H](N=[N+]=[N-])CC[C@]4(C)[C@H]3CC[C@]12C [3α-N3-UDC, methyl 3α-azido-7β-hydroxy-5β-cholan-24-oate] | 25 ± 1 | > 100 | 22 ± 1.5 |  |  |  |  | active | not active | active
25 | COC(=O)CCC(C)[C@H]1CCC2C3C(CC[C@@]21C)[C@@]1(C)CC[C@@H](n2cc(CCCCC#Cc4nc5c(=O)[nH]c(N)nc5n4[C@H]4C[C@H](O)[C@@H](CO)O4)nn2)CC1C[C@H]3O (some centres unmarked) [dG-CDC] | > 50 | > 100 | > 50 |  |  |  |  |  |  | 
26 | CC(CCn1cc(CCCCC#Cc2nc3c(=O)[nH]c(N)nc3n2[C@@H]2O[C@H](CO)[C@@H](O)[C@H]2O)nn1)[C@H]1CCC2C3C(CC[C@@]21C)[C@@]1(C)CC[C@@H](O)CC1C[C@H]3O (some centres unmarked) [G-nor-CDC] | > 50 | > 100 | > 50 |  |  |  |  |  |  | 
27 | CC(CCC(=O)NCCS(=O)(=O)O)[C@H]1CCC2C3C(CC[C@@]21C)[C@@]1(C)CC[C@@H](n2cc(CCCCC#Cc4nc5c(N)ncnc5n4[C@H]4C[C@H](O)[C@@H](CO)O4)nn2)CC1C[C@@H]3O (some centres unmarked) [dA-TUDCA] | > 50 | > 100 | > 50 |  |  |  |  |  |  | 
